One compound from PMC5954419 (Biochemistry, 2017) can be followed below.

The target in the experiment is T1, MGST1 (unactivated) (Rattus norvegicus, UniProt P08011).
T1 sequence (P08011 2-155): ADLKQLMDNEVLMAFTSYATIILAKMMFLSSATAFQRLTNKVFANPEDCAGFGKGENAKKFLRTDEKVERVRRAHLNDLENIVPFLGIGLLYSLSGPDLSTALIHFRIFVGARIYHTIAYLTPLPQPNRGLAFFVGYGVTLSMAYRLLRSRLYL
Description: steady-state spectrophotometric product formation. Particulars: 5 mM GSH, 5 °C, pH 6.5, 0.1 M potassium phosphate, 0.1% Triton X-100; unactivated enzyme. It is filed as biochemical.

For orientation: Km means the substrate concentration at which the rate is half of its maximum.

For `O=[N+]([O-])c1ccc(Cl)c([N+](=O)[O-])c1` [CDNB, 1-Chloro-2,4-dinitrobenzene], the Km amounted to 11 ± 2 µM.
